# Test results from PMC8445847 (iScience, 2021).
# Read-outs that look alike come from different tables or passages of the source.
# Tests used:
# [1] = system: BRD4 occupancy at the cMYC promoter in JeKo-1 cells; assay: BRD4 ChIP assay at the cMYC promoter; assay type: cell-based, human; details: 1 μM, 24 h
# JeKo-1 and Mino cells = assay: apoptosis after drug washout; assay type: cell-based, human; details: 5 μM, treated 4 or 8 h, analyzed 16 or 20 h post washout
# Z-138 cells = assay: Annexin V/propidium iodide apoptosis assay; assay type: cell-based, human; details: up to 5 μM, 24 h, Annexin V/PI
# [2] = system: Ibrutinib-resistant Granta cells; assay: Alamar Blue cell viability assay; assay type: cell-based; details: Homo sapiens, 48 h, read-out: antiproliferative IC50 Granta
# [3] = relapsed-refractory MCL; ref Byrd et al., 2013; Sarkozy and Ribrag, 2020; cited from earlier work
# JeKo-1 cells [4] = assay: Alamar Blue cell viability assay; assay type: cell-based, human; details: read-out: antiproliferative IC50 JeKo-1
# Mino cells [5] = assay: Annexin V/propidium iodide apoptosis assay; assay type: cell-based, human; details: up to 5 μM, 24 h, Annexin V/PI
# JeKo-1 cells [6] = assay: Annexin V/propidium iodide apoptosis assay; assay type: cell-based, human; details: up to 5 μM, 24 h, Annexin V/PI
# [7] = system: pPLCγ2(Y759) in JeKo-1 cells; assay: Western blot of IgM-stimulated cells; assay type: cell-based, human; details: IgM-stimulated JeKo-1 cells, 1 hr
# Mino cells [8] = assay: Alamar Blue cell viability assay; assay type: cell-based, human; details: 48 h, read-out: antiproliferative IC50 Mino
# JeKo-1 MCL tumors = assay: JeKo-1 MCL xenograft tumor model; assay type: in vivo; details: 60 mg/kg daily by oral gavage; SRX3262 vs Ibrutinib-treated mice
# BRD4 BD2 [9] = assay: NMR titration; assay type: binding; details: 15N-labeled protein, PBS pH 6.8
# Mino BTK-WT cells = assay: cell viability assay, engineered BTK cell lines; assay type: cell-based, human; details: read-out: IC50 Mino BTK-WT; 48 h
# JeKo-1 BTK-WT cells = assay: cell viability assay, engineered BTK cell lines; assay type: cell-based, human
# BRD4 BD2 [10] = target: BRD4 BD2 (Homo sapiens, UniProt O60885); assay: Alpha Screen assay against tetra-acetylated histone H4 peptide; assay type: binding; details: read-out: IC50 BRD4 BD2
# JeKo-1 BTK-C481S cells = assay: cell viability assay, engineered BTK cell lines; assay type: cell-based, human; details: read-out: IC50 JeKo-1 BTK-C481S; 48 h, Ibrutinib-resistant BTK-C481S
# [11] = system: JeKo-1 chronic Ibrutinib-resistant cell line; assay: Cell titer Glow viability assay; assay type: cell-based, human
# Mino BTK-C481S cells = assay: cell viability assay, engineered BTK cell lines; assay type: cell-based, human; details: read-out: IC50 Mino BTK-C481S; 48 h, Ibrutinib-resistant BTK-C481S
# BRD4 BD1 [12] = target: BRD4 BD1 (Homo sapiens, UniProt O60885); assay: Alpha Screen assay against tetra-acetylated histone H4 peptide; assay type: binding; details: read-out: IC50 BRD4 BD1
# PI3Kδ = PI3Kδ (Homo sapiens, UniProt O00329); assay: in vitro kinase assay; assay type: biochemical; details: read-out: IC50 PI3Kδ
# [13] = system: BTK and AKT phosphorylation in Mino cells; assay: inhibitor washout assay; details: 1 h treatment, 24 h post washout
# BTK = BTK (Homo sapiens, UniProt Q06187); assay: in vitro kinase assay; assay type: biochemical; details: read-out: IC50 BTK
# [14] = system: JeKo-1 BTK-WT, JeKo-1 BTK-C481S and Mino BTK-C481S cells; details: up to 5 μM
# JeKo-1 cells [15] = assay: cell cycle analysis; assay type: cell-based, human; details: JeKo-1, 1–5 μM, 24 h
# [16] = system: cMYC, BCL2 and HEXIM1 expression in JeKo-1 and Mino cells; assay: qRT-PCR of BRD4 target genes; assay type: cell-based, human; details: 1 and 2.5 μM, 24 hr
# [17] = system: pBTK(Y223) and pAKT(S473) in Mino cells; assay: Western blot of IgM-stimulated cells; assay type: cell-based, human; details: 1 hr
# BRD4 BD1 [18] = assay: NMR titration; assay type: binding; details: 15N-labeled protein, PBS pH 6.8
# PI3Kα = PI3Kα (Homo sapiens, UniProt P42336); assay: in vitro kinase assay; assay type: biochemical; details: read-out: IC50 PI3Kα
# [19] = system: cMYC protein in Jeko-1 and Mino cells; assay: Western blot of cMYC; assay type: cell-based, human
# Sequence of PI3Kδ (O00329 whole entry): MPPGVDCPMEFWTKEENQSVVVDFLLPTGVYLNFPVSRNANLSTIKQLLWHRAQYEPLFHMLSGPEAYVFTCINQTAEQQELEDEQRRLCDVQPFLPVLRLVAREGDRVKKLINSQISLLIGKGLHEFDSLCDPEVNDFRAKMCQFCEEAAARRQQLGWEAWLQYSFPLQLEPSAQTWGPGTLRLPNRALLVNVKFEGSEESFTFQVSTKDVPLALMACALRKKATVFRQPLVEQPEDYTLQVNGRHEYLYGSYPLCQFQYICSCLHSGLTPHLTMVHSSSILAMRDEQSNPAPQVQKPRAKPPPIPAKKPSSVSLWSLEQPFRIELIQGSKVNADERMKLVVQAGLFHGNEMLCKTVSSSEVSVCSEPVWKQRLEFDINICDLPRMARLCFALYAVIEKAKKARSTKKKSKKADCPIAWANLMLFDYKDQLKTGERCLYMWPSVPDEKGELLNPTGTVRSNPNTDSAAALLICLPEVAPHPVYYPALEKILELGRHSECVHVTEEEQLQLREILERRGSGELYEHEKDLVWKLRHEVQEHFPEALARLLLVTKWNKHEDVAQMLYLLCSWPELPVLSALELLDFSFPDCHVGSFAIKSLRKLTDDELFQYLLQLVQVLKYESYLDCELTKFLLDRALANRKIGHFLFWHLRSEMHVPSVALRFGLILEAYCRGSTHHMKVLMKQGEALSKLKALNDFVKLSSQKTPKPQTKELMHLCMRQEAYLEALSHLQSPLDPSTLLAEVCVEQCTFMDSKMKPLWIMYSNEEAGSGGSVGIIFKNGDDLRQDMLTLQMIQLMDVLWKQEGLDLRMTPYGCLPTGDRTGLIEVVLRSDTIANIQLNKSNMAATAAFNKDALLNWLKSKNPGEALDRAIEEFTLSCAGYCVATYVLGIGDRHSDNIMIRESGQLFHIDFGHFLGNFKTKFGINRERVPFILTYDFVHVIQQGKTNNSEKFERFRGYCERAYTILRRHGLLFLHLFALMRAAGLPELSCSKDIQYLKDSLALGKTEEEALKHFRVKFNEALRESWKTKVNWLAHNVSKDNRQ
# Sequence of PI3Kδ (P27986 whole entry partner): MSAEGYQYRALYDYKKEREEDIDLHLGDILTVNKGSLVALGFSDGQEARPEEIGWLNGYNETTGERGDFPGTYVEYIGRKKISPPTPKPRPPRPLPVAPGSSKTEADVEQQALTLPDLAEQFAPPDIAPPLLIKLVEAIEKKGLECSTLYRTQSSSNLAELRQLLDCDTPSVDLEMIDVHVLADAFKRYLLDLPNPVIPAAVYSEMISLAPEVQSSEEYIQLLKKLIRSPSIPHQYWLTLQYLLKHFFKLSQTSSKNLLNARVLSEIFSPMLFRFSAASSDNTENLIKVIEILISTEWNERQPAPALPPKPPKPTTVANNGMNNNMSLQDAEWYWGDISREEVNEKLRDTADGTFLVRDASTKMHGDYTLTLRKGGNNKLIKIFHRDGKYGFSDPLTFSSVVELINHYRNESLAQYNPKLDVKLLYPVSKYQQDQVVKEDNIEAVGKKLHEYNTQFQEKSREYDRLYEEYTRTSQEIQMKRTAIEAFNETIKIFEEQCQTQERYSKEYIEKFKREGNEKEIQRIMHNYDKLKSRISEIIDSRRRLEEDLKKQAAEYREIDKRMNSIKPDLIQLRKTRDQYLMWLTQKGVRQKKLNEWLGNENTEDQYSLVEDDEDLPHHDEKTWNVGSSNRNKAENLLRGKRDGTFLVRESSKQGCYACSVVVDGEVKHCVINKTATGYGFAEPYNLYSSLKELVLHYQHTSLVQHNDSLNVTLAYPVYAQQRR
# Sequence of PI3Kα (P42336 whole entry): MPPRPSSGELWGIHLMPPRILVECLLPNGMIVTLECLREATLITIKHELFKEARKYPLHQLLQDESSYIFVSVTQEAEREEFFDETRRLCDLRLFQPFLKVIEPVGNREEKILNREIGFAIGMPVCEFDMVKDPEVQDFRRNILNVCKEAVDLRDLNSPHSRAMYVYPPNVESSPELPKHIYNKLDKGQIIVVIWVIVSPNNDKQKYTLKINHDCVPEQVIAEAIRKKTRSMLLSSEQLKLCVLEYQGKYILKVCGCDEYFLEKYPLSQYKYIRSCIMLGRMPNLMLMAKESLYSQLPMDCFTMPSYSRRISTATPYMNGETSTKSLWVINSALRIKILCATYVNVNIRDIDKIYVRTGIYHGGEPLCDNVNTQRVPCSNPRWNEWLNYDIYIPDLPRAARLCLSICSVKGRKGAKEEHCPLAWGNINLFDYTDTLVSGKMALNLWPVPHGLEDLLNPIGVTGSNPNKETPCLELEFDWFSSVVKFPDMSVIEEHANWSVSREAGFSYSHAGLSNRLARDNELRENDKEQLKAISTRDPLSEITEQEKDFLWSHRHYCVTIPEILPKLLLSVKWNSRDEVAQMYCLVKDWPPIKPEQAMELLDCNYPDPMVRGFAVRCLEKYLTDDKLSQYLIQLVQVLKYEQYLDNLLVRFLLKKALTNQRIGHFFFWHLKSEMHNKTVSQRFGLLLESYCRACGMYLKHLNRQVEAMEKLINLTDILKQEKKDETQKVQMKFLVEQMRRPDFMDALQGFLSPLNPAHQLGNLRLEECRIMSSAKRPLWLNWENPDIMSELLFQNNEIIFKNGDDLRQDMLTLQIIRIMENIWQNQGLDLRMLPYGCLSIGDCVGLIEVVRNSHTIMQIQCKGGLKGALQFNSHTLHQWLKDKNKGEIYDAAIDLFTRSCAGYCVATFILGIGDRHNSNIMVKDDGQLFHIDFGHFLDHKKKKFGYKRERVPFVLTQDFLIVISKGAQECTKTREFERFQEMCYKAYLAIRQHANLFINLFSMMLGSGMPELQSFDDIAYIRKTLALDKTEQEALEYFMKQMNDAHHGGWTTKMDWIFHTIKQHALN
# Sequence of PI3Kα (P27986 whole entry partner): as the sequence (P27986 whole entry partner) above
# Sequence of BTK (Q06187 whole entry): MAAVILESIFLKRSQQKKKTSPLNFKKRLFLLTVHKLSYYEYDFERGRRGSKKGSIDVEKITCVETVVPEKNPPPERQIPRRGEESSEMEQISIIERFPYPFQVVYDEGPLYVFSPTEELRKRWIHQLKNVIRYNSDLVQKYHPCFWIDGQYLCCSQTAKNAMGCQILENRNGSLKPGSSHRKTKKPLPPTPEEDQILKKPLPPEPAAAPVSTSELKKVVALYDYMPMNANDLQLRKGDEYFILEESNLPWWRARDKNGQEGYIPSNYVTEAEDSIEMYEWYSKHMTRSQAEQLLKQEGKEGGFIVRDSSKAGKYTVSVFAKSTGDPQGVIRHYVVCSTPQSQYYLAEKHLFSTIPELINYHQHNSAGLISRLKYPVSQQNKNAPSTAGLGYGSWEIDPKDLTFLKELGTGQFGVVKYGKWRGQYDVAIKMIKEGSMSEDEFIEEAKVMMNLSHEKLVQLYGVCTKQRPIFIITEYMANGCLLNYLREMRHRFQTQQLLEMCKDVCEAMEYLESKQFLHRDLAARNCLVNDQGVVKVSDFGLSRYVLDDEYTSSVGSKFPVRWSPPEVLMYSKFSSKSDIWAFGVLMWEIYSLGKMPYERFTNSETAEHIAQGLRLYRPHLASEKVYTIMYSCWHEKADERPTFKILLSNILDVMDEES
compound,measurement,setting,value
"Cc1sc2c(c1C)C(c1ccc(Cl)cc1)=N[C@@H](CC(=O)OC(C)(C)C)c1nnc(C)n1-2 [JQ1, reference compound]",BRD4 localization at the cMYC promoter site,[1],decreased
"C=CC(=O)N1CCC[C@@H](n2nc(-c3ccc(Oc4ccccc4)cc3)c3c(N)ncnc32)C1 [Ibrutinib, reference compound]",cells undergoing apoptosis after drug washout,JeKo-1 and Mino cells,20–30%
same,apoptosis Z-138,Z-138 cells,mild effect
same,IC50,[2],20000 nM
same,complete response,[3],23%
same,objective response rate,[3],68%
same,IC50,"JeKo-1 cells [4]; Homo sapiens, JeKo-1, 48 h",8000 nM
same,apoptosis Mino,Mino cells [5],mild effect
same,apoptosis JeKo-1,JeKo-1 cells [6],no effect
same,phosphorylation of PLCγ2,[7],inhibited phosphorylation of PLCγ2
same,IC50,"Mino cells [8]; Homo sapiens, MINO",6500 nM
C=CC(=O)N1CCOc2ccc(-c3csc4c(=O)cc(N5CCOCC5)oc34)cc21 [SRX3262],body weight,JeKo-1 MCL tumors,did not observe any notable changes in body weight
same,binding to BRD4 BD2 (chemical shift perturbations),BRD4 BD2 [9],binds to both BD1 and BD2
same,cells undergoing apoptosis after drug washout,JeKo-1 and Mino cells,40–70%
same,IC50,Mino BTK-WT cells,690 nM
same,times more effective than Ibrutinib,JeKo-1 BTK-WT cells; both JeKo-1 BTK-WT and JeKo-1 BTK-C481S cells,20–27 times
same,IC50,"JeKo-1 BTK-WT cells; read-out: IC50 JeKo-1 BTK-WT, 48 h",550 nM
same,BRD4 localization at the cMYC promoter site,[1],decreased
same,IC50,BRD4 BD2 [10],348 nM
same,IC50,JeKo-1 BTK-C481S cells,730 nM
same,decrease in cell viability compared to Ibrutinib,[11],3–6 times
same,apoptosis Z-138,Z-138 cells,dramatically increased apoptosis
same,IC50,Mino BTK-C481S cells,380 nM
same,IC50,BRD4 BD1 [12],228 nM
same,IC50,PI3Kδ,16 nM
same,AKT phosphorylation after inhibitor washout,[13],sustained inhibition of AKT phosphorylation
same,IC50,BTK,35 nM
same,apoptosis in BTK-WT and Ibrutinib-resistant BTK-C481S cells,[14],increase in apoptotic cell death
same,cell cycle arrest,JeKo-1 cells [15],induced G2 phase cell cycle arrest
same,IC50,"JeKo-1 cells [4]; Alamar Blue, 48 h",620 nM
same,apoptosis Mino,Mino cells [5],dramatically increased apoptosis
same,apoptosis JeKo-1,JeKo-1 cells [6],dramatically increased apoptosis
same,phosphorylation of PLCγ2,[7],inhibited phosphorylation of PLCγ2
same,expression of HEXIM1,[16],increase of expression of HEXIM1
same,expression of cMYC and BCL2,[16],decrease of expression
same,IC50,Mino cells [8]; Alamar Blue,130 nM
same,phosphorylation of S473 in AKT,[17],inhibited phosphorylation
same,phosphorylation of Y223 in BTK,[17],inhibited phosphorylation
same,binding to BRD4 BD1 (chemical shift perturbations),BRD4 BD1 [18],binds to both BD1 and BD2
same,IC50,PI3Kα,64 nM
same,cMYC protein level,[19],decreased the cMYC protein level
